Laboratory results from patent publication US10647747B2, “Cyclosporin derivatives and uses thereof” (S&T Global Inc., priority 2010, dated 2020).
*1 amine or outer side, *2 acyl side, *3 side chain or, on linkers, in order; H or OH if unused. Where a SMILES comes first, the peptide text is derived from it. [ ]: non-standard residue; d: D form. X3 = CC=CCC(C)C(O)C(C(=O)[*:2])N(C)[*:1]; X13 = CCN(CC)CCCSC(C(=O)[*:2])N(C)[*:1]; X7 = CN(C(SCCCN1CCOCC1)C(=O)[*:2])[*:1]; NMeI = CC[CH](C)[CH](NC)C(=O)O; NMeL = CN[CH](CC(C)C)C(=O)O; NMeV = CN[CH](C(=O)O)C(C)C; Abu = CC[CH](N)C(=O)O

Each compound was assayed on HCV replicon in cell line ET (luc-ubi-neo/ET), Huh7 human hepatoma (assay: HCV subgenomic replicon assay, luciferase end point). Settings: HCV subgenomic replicon, cell line ET (luc-ubi-neo/ET) Huh7, luciferase end point; read-out: Antiviral activity EC50.
Assay type: cell-based

| Structure (SMILES) | EC50 [nM] |
| --- | --- |
| CC=CCC(C)C(O)C1C(=O)NC(CC)C(=O)N(C)C(CSCCN(C)C)C(=O)N(C)C(CC(C)(C)OC)C(=O)NC(C(C)C)C(=O)N(C)C(CC(C)C)C(=O)NC(C)C(=O)NC(C)C(=O)N(C)C(CC(C)C)C(=O)N(C)C(CC(C)C)C(=O)N(C)C(C(C)C)C(=O)N1C (stereo not shown) | 100 |
| CC=CCC(C)C(O)C1C(=O)NC(CC)C(=O)N(C)C(CSCCN2CCCCC2)C(=O)N(C)C(CC(C)(C)O)C(=O)NC(C(C)C)C(=O)N(C)C(CC(C)C)C(=O)NC(C)C(=O)NC(C)C(=O)N(C)C(CC(C)C)C(=O)N(C)C(CC(C)C)C(=O)N(C)C(C(C)C)C(=O)N1C (stereo not shown) | 80 |
| CC=CCC(C)C(O)C1C(=O)NC(CC)C(=O)N(C)C(COCCN(CC)CC)C(=O)N(C)C(CC(C)(C)O)C(=O)NC(C(C)C)C(=O)N(C)C(CC(C)C)C(=O)NC(C)C(=O)NC(C)C(=O)N(C)C(CC(C)C)C(=O)N(C)C(CC(C)C)C(=O)N(C)C(C(C)C)C(=O)N1C (stereo not shown) | 120 |
| CC=CCC(C)C(O)C1C(=O)NC(CC)C(=O)N(C)C(SCCCN(CC)CC)C(=O)N(C)C(C(C)C)C(=O)NC(C(C)C)C(=O)N(C)C(CC(C)C)C(=O)NC(C)C(=O)NC(C)C(=O)N(C)C(CC(C)C)C(=O)N(C)C(CC(C)C)C(=O)N(C)C(C(C)C)C(=O)N1C [[(S)-3-(N,N-Diethylamino)propylthio-Sar]-3-[N-MeVal]-4-cyclosporin] (cyclo([X3][Abu][X13][NMeV]V[NMeL]AA[NMeL][NMeL][NMeV]); configuration not given here) | 70 |
| C/C=C/C[C@@H](C)[C@@H](O)[C@H]1C(=O)N[C@@H](CC)C(=O)N(C)[C@H](CSCCCN(CC)CC)C(=O)N(C)[C@@H](CC(C)(C)OC)C(=O)N[C@@H](C(C)C)C(=O)N(C)[C@@H](CC(C)C)C(=O)N[C@@H](C)C(=O)N[C@H](C)C(=O)N(C)[C@@H](CC(C)C)C(=O)N(C)[C@@H](CC(C)C)C(=O)N(C)[C@@H](C(C)C)C(=O)N1C | 70 |
| CC=CCC(C)C(O)C1C(=O)NC(CC)C(=O)N(C)C(SCCCN2CCOCC2)C(=O)N(C)C(C(C)C)C(=O)NC(C(C)C)C(=O)N(C)C(CC(C)C)C(=O)NC(C)C(=O)NC(C)C(=O)N(C)C(CC(C)C)C(=O)N(C)C(CC(C)C)C(=O)N(C)C(C(C)C)C(=O)N1C [[(S)-(3-(N-Morpholino)propylthio-Sar]-3-[N-MeVal]-4-cyclosporin] (cyclo([X3][Abu][X7][NMeV]V[NMeL]AA[NMeL][NMeL][NMeV]); configuration not given here) | 110 |
| CC=CCC(C)C(O)C1C(=O)NC(CC)C(=O)N(C)C(CSCCCN2CCCC2)C(=O)N(C)C(CC(C)(C)OC)C(=O)NC(C(C)C)C(=O)N(C)C(CC(C)C)C(=O)NC(C)C(=O)NC(C)C(=O)N(C)C(CC(C)C)C(=O)N(C)C(CC(C)C)C(=O)N(C)C(C(C)C)C(=O)N1C (stereo not shown) | 100 |
| CC=CCC(C)C(O)C1C(=O)NC(CC)C(=O)N(C)C(SCCCN(CC)CC)C(=O)N(C)C(C(C)CC)C(=O)NC(C(C)C)C(=O)N(C)C(CC(C)C)C(=O)NC(C)C(=O)NC(C)C(=O)N(C)C(CC(C)C)C(=O)N(C)C(CC(C)C)C(=O)N(C)C(C(C)C)C(=O)N1C [[(S)-3-(N,N-Diethylamino)propylthio-Sar]-3-[N-MeIle]-4-cyclosporin] (cyclo([X3][Abu][X13][NMeI]V[NMeL]AA[NMeL][NMeL][NMeV]); configuration not given here) | 80 |
| C/C=C/C[C@@H](C)[C@@H](O)[C@H]1C(=O)N[C@@H](CC)C(=O)N(C)[C@H](COCCCN2CCCC2)C(=O)N(C)[C@@H](CC(C)(C)O)C(=O)N[C@@H](C(C)C)C(=O)N(C)[C@@H](CC(C)C)C(=O)N[C@@H](C)C(=O)N[C@H](C)C(=O)N(C)[C@@H](CC(C)C)C(=O)N(C)[C@@H](CC(C)C)C(=O)N(C)[C@@H](C(C)C)C(=O)N1C | 220 |
| CC=CCC(C)C(O)C1C(=O)NC(CC)C(=O)N(C)C(COCCN(C)C)C(=O)N(C)C(CC(C)(C)O)C(=O)NC(C(C)C)C(=O)N(C)C(CC(C)C)C(=O)NC(C)C(=O)NC(C)C(=O)N(C)C(CC(C)C)C(=O)N(C)C(CC(C)C)C(=O)N(C)C(C(C)C)C(=O)N1C (stereo not shown) | 240 |
| CC=CCC(C)C(O)C1C(=O)NC(CC)C(=O)N(C)C(CSCCN(C)C(C)C)C(=O)N(C)C(CC(C)(C)O)C(=O)NC(C(C)C)C(=O)N(C)C(CC(C)C)C(=O)NC(C)C(=O)NC(C)C(=O)N(C)C(CC(C)C)C(=O)N(C)C(CC(C)C)C(=O)N(C)C(C(C)C)C(=O)N1C (stereo not shown) | 100 |
| CC=CCC(C)C(O)C1C(=O)NC(CC)C(=O)N(C)C(CSCCN2CCOCC2)C(=O)N(C)C(CC(C)(C)OC)C(=O)NC(C(C)C)C(=O)N(C)C(CC(C)C)C(=O)NC(C)C(=O)NC(C)C(=O)N(C)C(CC(C)C)C(=O)N(C)C(CC(C)C)C(=O)N(C)C(C(C)C)C(=O)N1C (stereo not shown) | 110 |

Same assay, conditions: Table 14, HCV replicon luciferase; read-out: Antiviral activity EC50

| Structure (SMILES) | EC50 [nM] |
| --- | --- |
| C/C=C/C[C@@H](C)[C@@H](O)[C@H]1C(=O)N[C@@H](CC)C(=O)N(C)[C@H](COCCCN2CCCC2)C(=O)N(C)[C@@H](CC(C)(C)O)C(=O)N[C@@H](C(C)C)C(=O)N(C)[C@@H](CC(C)C)C(=O)N[C@@H](C)C(=O)N[C@H](C)C(=O)N(C)[C@@H](CC(C)C)C(=O)N(C)[C@@H](CC(C)C)C(=O)N(C)[C@@H](C(C)C)C(=O)N1C | 120 |
